Reference: patent US20050182025A1, “Amidinylphenyl compounds and their use as fungicides” (priority 2002, published 2005)

Experiments:
Type in all cases: in vivo
Septoria nodorum = assay: Test C: preventive spray on wheat seedlings, Septoria glume blotch, disease rating; settings: wheat seedlings sprayed to run-off, inoculated the following day with Septoria nodorum, 48 h saturated atmosphere then 9 days at 20° C.; test concentration not given
Procedure, shortened: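 Wheat seedlings were sprayed to run-off with compound suspensions in acetone/water containing 250 ppm Trem 014 (200 ppm equals 500 g/ha), then inoculated with Septoria nodorum spores next day. Plants were held 48 h saturated at 20° C., then 9 days at 20° C. Disease control was rated 0–100 relative to controls.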

[1] = system: Erysiphe graminis f. sp. tritici; assay: Test A: preventive spray on wheat seedlings, wheat powdery mildew, disease rating; settings: wheat seedlings sprayed to run-off, inoculated the following day with Erysiphe graminis f. sp. tritici, rated after 7 days at 20° C.; test concentration not given
Procedure, shortened: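 Wheat seedlings sprayed to run-off with compound suspension (200 ppm ≈ 500 g/ha) in acetone/water with surfactant, inoculated next day with Erysiphe graminis f. sp. tritici spores. After 7 days at 20 °C, disease rated 0–100 as % control relative to untreated plants.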

Puccinia recondita = assay: Test B: preventive spray on wheat seedlings, wheat leaf rust, disease rating; settings: wheat seedlings sprayed to run-off, inoculated the following day with Puccinia recondita, 24 h saturated atmosphere then 6 days at 20° C.; test concentration not given
Procedure, shortened: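 Compound suspended in acetone/water (50/50) with 250 ppm Trem 014 surfactant, sprayed to run-off on wheat seedlings (200 ppm ≈ 500 g/ha); P. recondita spores inoculated next day. Plants held 24 h saturated at 20° C, then 6 days at 20° C; disease rated as % control relative to untreated (100 = full control).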

CCN(C)C=Nc1cc(Cl)c(OC(C)CCC(C)C)cc1C (stereo not drawn) [compound 198]
100%: Test C disease control rating (100 = 100% disease control, 0 = no disease control relative to the controls) (Septoria nodorum) | Test A disease control rating (100 = 100% disease control, 0 = no disease control relative to the controls) [1] | Test B disease control rating (100 = 100% disease control, 0 = no disease control relative to the controls) (Puccinia recondita)

CCN(C)C=Nc1cc(C)c(OCCCC(C)(C)C)cc1C [compound 199]
100%: Test C disease control rating (100 = 100% disease control, 0 = no disease control relative to the controls) (Septoria nodorum) | Test A disease control rating (100 = 100% disease control, 0 = no disease control relative to the controls) [1] | Test B disease control rating (100 = 100% disease control, 0 = no disease control relative to the controls) (Puccinia recondita)

CCN(C)C=Nc1cc(C)c(OCCCC(C)C)c(Cl)c1C [compound 200]
100%: Test C disease control rating (100 = 100% disease control, 0 = no disease control relative to the controls) (Septoria nodorum) | Test A disease control rating (100 = 100% disease control, 0 = no disease control relative to the controls) [1] | Test B disease control rating (100 = 100% disease control, 0 = no disease control relative to the controls) (Puccinia recondita)

CCN(C)C=Nc1cc(C)c(OCCCC(C)(C)C)c(Cl)c1C [compound 201]
100%: Test C disease control rating (100 = 100% disease control, 0 = no disease control relative to the controls) (Septoria nodorum) | Test A disease control rating (100 = 100% disease control, 0 = no disease control relative to the controls) [1] | Test B disease control rating (100 = 100% disease control, 0 = no disease control relative to the controls) (Puccinia recondita)
